# Results as given in US8399378B2, “Use of neonicotinoids in pest control” (Syngenta Crop Protection LLC, priority 1998, dated 2013).
# Key:
# Assay type in all cases: in vivo
# [1] = test system: Anthonomus grandis; experiment: Spray test on young cotton plants, action against Anthonomus grandis adults; conditions: spray 100, 50, 10, 5, 1 ppm, evaluation 3 to 10 days
# From the text: (§1) Young transgenic cotton plants which express the δ-endotoxin CryIIIA are sprayed with an aqueous emulsion spray mixture comprising 100, 50, 10, 5, 1 ppm of imidacloprid respectively. After the spray coating has dried on, the cotton plants are populated with 10 adult Anthonomus grandis, 10 Spodoptera littoralis larvae or 10 Heliothis virescens larvae respectively and introduced into a plastic container. Evaluation takes place 3 to 10 days later.
# as §1, with “thiamethoxam” for “imidacloprid”
# as §1, with “Ti-435” for “imidacloprid”
# as §1, with “CryIa(c)” for “CryIIIA”, “Ti-435” for “imidacloprid”
# as §1, with “CryIa(c)” for “CryIIIA”, “thiamethoxam” for “imidacloprid”
# as §1, with “CryIa(c)” for “CryIIIA”
# [2] = test system: Spodoptera littoralis; experiment: Spray test on young cotton plants, action against Spodoptera littoralis larvae
# From the text: as §1
# as §1, with “thiamethoxam” for “imidacloprid”
# as §1, with “Ti-435” for “imidacloprid”
# as §1, with “CryIa(c)” for “CryIIIA”, “Ti-435” for “imidacloprid”
# as §1, with “CryIa(c)” for “CryIIIA”, “thiamethoxam” for “imidacloprid”
# as §1, with “CryIa(c)” for “CryIIIA”
# [3] = test system: Heliothis virescens; experiment: Spray test on young cotton plants, action against Heliothis virescens larvae; conditions: spray 100, 50, 10, 5, 1 ppm, evaluation 3 to 10 days
# From the text: as §1
# as §1, with “thiamethoxam” for “imidacloprid”
# as §1, with “Ti-435” for “imidacloprid”, “later. […]” for “later.”
# [4] = test system: Ostrinia nubilalis; experiment: Maize plot spray test (KnockOut vs conventional maize), action against Ostrinia nubilalis; conditions: 6 days; for control (percentage reduction in population, % action): plot (a) maize cv. KnockOut, spray 200, 100, 50, 10, 5, 1 ppm, natural infestation; for control level: plot (b) conventional maize, compound 200, 100, 50, 10, 5, 1 ppm, then same ppm of the endotoxin expressed by KnockOut
# Method: (§2) A plot (a) planted with maize cv. KnockOut® and an adjacent plot (b) of the same size which is planted with conventional maize, both showing natural infestation with Ostrinia nubilalis, Spodoptera spp. or Heliothis, are sprayed with an aqueous emulsion spray mixture comprising 200, 100, 50, 10, 5, 1 ppm of Ti-435. Immediately afterwards, plot (b) is treated with an emulsion spray mixture comprising 200, 100, 50, 10, 5, 1 ppm of the endotoxin expressed by KnockOut®. Evaluation takes place 6 days later. The percentage reduction in population (% action) is determined by comparing the number of dead pests on the plants of plot (a) with that on the plants of plot (b).
# as §2, with “thiamethoxam.” for “Ti-435.”
# as §2, with “imidacloprid.” for “Ti-435.”
# [5] = test system: Spodoptera spp.; experiment: Maize plot spray test (KnockOut vs conventional maize), action against Spodoptera spp.; conditions: 6 days; for control (percentage reduction in population, % action): plot (a) maize cv. KnockOut, spray 200, 100, 50, 10, 5, 1 ppm, natural infestation; for control level: plot (b) conventional maize, compound 200, 100, 50, 10, 5, 1 ppm, then same ppm of the endotoxin expressed by KnockOut
# Method: as §2
# as §2, with “thiamethoxam.” for “Ti-435.”
# as §2, with “imidacloprid.” for “Ti-435.”
# [6] = test system: Heliothis spp.; experiment: Maize plot spray test (KnockOut vs conventional maize), action against Heliothis spp.; conditions: 6 days; for control (percentage reduction in population, % action): plot (a) maize cv. KnockOut, spray 200, 100, 50, 10, 5, 1 ppm, natural infestation; for control level: plot (b) conventional maize, compound 200, 100, 50, 10, 5, 1 ppm, then same ppm of the endotoxin expressed by KnockOut
# Method: as §2
# as §2, with “thiamethoxam.” for “Ti-435.”
# as §2, with “imidacloprid.” for “Ti-435.”
# [7] = test system: Anthonomus grandis; experiment: Spray test on young cotton plants, action against Anthonomus grandis adults; conditions: non-transgenic cotton treated with compound and conventional CryIIIA-toxin, each 100, 50, 10, 5, 1 ppm
# [8] = test system: Spodoptera littoralis; experiment: Spray test on young cotton plants, action against Spodoptera littoralis larvae; remark: listed apart in the source
# [9] = test system: Heliothis virescens; experiment: Spray test on young cotton plants, action against Heliothis virescens larvae; conditions: non-transgenic cotton treated with compound and conventional CryIIIA-toxin, each 100, 50, 10, 5, 1 ppm
# [10] = transgenic cotton expressing δ-endotoxin CryIIIA, compared with non-transgenic plant
# [11] = transgenic cotton expressing δ-endotoxin CryIa(c)
# [12] = non-transgenic cotton treated with compound and conventional CryIIIA-toxin, each 100, 50, 10, 5, 1 ppm, comparison arm for CryIa(c) cotton
# [13] = transgenic cotton expressing δ-endotoxin CryIa(c), spray 100, 50, 10, 5, 1 ppm, evaluation 3 to 10 days
# [14] = comparison arm for CryIIIA cotton
# [15] = comparison arm for CryIa(c) cotton
# [16] = transgenic cotton expressing δ-endotoxin CryIIIA, spray 100, 50, 10, 5, 1 ppm, evaluation 3 to 10 days, compared with non-transgenic plant
SMILES,"control of the tested insects (percentage reduction in population or feeding damage, % action) [1, 10]","control of the tested insects (percentage reduction in population or feeding damage, % action) [1, 11]","control of the tested insects (percentage reduction in population or feeding damage, % action) [2, 12]","control of the tested insects (percentage reduction in population or feeding damage, % action) [2, 13]","control of the tested insects (percentage reduction in population or feeding damage, % action) [3, 10]","control of the tested insects (percentage reduction in population or feeding damage, % action) [3, 11]","control (percentage reduction in population, % action) [4]",control level [4],"control (percentage reduction in population, % action) [5]",control level [5],"control (percentage reduction in population, % action) [6]",control level [6],"control of the tested insects (percentage reduction in population or feeding damage, % action) [7, 14]","control of the tested insects (percentage reduction in population or feeding damage, % action) [7, 15]","control of the tested insects (percentage reduction in population or feeding damage, % action) ([8]; non-transgenic cotton treated with compound and conventional CryIIIA-toxin, each 100, 50, 10, 5, 1 ppm, comparison arm for CryIIIA cotton)","control of the tested insects (percentage reduction in population or feeding damage, % action) [8, 16]","control of the tested insects (percentage reduction in population or feeding damage, % action) [9, 14]","control of the tested insects (percentage reduction in population or feeding damage, % action) [9, 15]"
CN/C(=N\[N+](=O)[O-])NCc1cnc(Cl)s1 [Ti-435],superior,superior,insufficient,superior,superior,superior,Improved control,≤ 60%,Improved control,≤ 60%,Improved control,≤ 60%,insufficient,insufficient,insufficient,superior,insufficient,insufficient
O=[N+]([O-])/N=C1\NCCN1Cc1ccc(Cl)nc1 [imidacloprid],superior,superior,insufficient,superior,superior,superior,Improved control,≤ 60%,Improved control,≤ 60%,Improved control,≤ 60%,,insufficient,,superior,,insufficient
